# Laboratory results from the NIST ThermoML archive (doi:10.1016/j.jct.2015.01.004).
# “And” between values parts separate entries of the source, which are not always exact repeats. Identical values can stand only once. Numbers after ± are expanded uncertainties.
# Experiment: molar heat capacity at constant pressure; xn = mol fraction of the nth substance listed
# Conditions: 100 kPa
compound,measurement,setting,value
[Si] [silicon] + [Li],molar heat capacity at constant pressure,"660 K, Crystal of intercomponent compound 1, relaxation calorimetry + DSC, x2 = 0.81",29.4 ± 1.2 J/K/mol
same,molar heat capacity at constant pressure,"660 K, Crystal of intercomponent compound 2, relaxation calorimetry + DSC, x2 = 0.804",30.54 ± 1.2 J/K/mol
same,molar heat capacity at constant pressure,"661.54 K, Crystal of intercomponent compound 2, Small sample (50 mg) DSC, x2 = 0.804",30.1 ± 0.74 J/K/mol and 30.48 ± 0.75 J/K/mol
same,molar heat capacity at constant pressure,"661.72 K, Crystal of intercomponent compound 1, Small sample (50 mg) DSC, x2 = 0.81",29.4 ± 0.72 J/K/mol
same,molar heat capacity at constant pressure,"661.75 K, Crystal of intercomponent compound 1, Small sample (50 mg) DSC, x2 = 0.81",29.72 ± 0.73 J/K/mol
same,molar heat capacity at constant pressure,"671.45 K, Crystal of intercomponent compound 2, Small sample (50 mg) DSC, x2 = 0.804",30.27 ± 0.74 J/K/mol and 30.68 ± 0.75 J/K/mol
same,molar heat capacity at constant pressure,"671.64 K, Crystal of intercomponent compound 1, Small sample (50 mg) DSC, x2 = 0.81",29.62 ± 0.73 J/K/mol
same,molar heat capacity at constant pressure,"671.66 K, Crystal of intercomponent compound 1, Small sample (50 mg) DSC, x2 = 0.81",29.83 ± 0.73 J/K/mol
same,molar heat capacity at constant pressure,"680 K, Crystal of intercomponent compound 1, relaxation calorimetry + DSC, x2 = 0.81",29.94 ± 1.2 J/K/mol
same,molar heat capacity at constant pressure,"680 K, Crystal of intercomponent compound 2, relaxation calorimetry + DSC, x2 = 0.804",30.97 ± 1.3 J/K/mol
same,molar heat capacity at constant pressure,"681.36 K, Crystal of intercomponent compound 2, Small sample (50 mg) DSC, x2 = 0.804",30.52 ± 0.75 J/K/mol and 30.84 ± 0.76 J/K/mol
same,molar heat capacity at constant pressure,"681.56 K, Crystal of intercomponent compound 1, Small sample (50 mg) DSC, x2 = 0.81",29.62 ± 0.73 J/K/mol
same,molar heat capacity at constant pressure,"681.57 K, Crystal of intercomponent compound 1, Small sample (50 mg) DSC, x2 = 0.81",30.16 ± 0.74 J/K/mol
same,molar heat capacity at constant pressure,"691.29 K, Crystal of intercomponent compound 2, Small sample (50 mg) DSC, x2 = 0.804",30.56 ± 0.75 J/K/mol and 31.08 ± 0.76 J/K/mol
same,molar heat capacity at constant pressure,"691.47 K, Crystal of intercomponent compound 1, Small sample (50 mg) DSC, x2 = 0.81",29.94 ± 0.73 J/K/mol
same,molar heat capacity at constant pressure,"691.48 K, Crystal of intercomponent compound 1, Small sample (50 mg) DSC, x2 = 0.81",30.38 ± 0.74 J/K/mol
same,molar heat capacity at constant pressure,"700 K, Crystal of intercomponent compound 1, relaxation calorimetry + DSC, x2 = 0.81",30.53 ± 1.2 J/K/mol
same,molar heat capacity at constant pressure,"700 K, Crystal of intercomponent compound 2, relaxation calorimetry + DSC, x2 = 0.804",31.4 ± 1.3 J/K/mol
same,molar heat capacity at constant pressure,"701.21 K, Crystal of intercomponent compound 2, Small sample (50 mg) DSC, x2 = 0.804",31.04 ± 0.76 J/K/mol and 31.36 ± 0.77 J/K/mol
same,molar heat capacity at constant pressure,"701.37 K, Crystal of intercomponent compound 1, Small sample (50 mg) DSC, x2 = 0.81",30.27 ± 0.74 J/K/mol
same,molar heat capacity at constant pressure,"701.39 K, Crystal of intercomponent compound 1, Small sample (50 mg) DSC, x2 = 0.81",30.6 ± 0.75 J/K/mol
same,molar heat capacity at constant pressure,"711.13 K, Crystal of intercomponent compound 2, Small sample (50 mg) DSC, x2 = 0.804",31.38 ± 0.77 J/K/mol and 31.59 ± 0.77 J/K/mol
same,molar heat capacity at constant pressure,"711.28 K, Crystal of intercomponent compound 1, Small sample (50 mg) DSC, x2 = 0.81",30.6 ± 0.75 J/K/mol
same,molar heat capacity at constant pressure,"711.3 K, Crystal of intercomponent compound 1, Small sample (50 mg) DSC, x2 = 0.81",30.82 ± 0.75 J/K/mol
same,molar heat capacity at constant pressure,"720 K, Crystal of intercomponent compound 1, relaxation calorimetry + DSC, x2 = 0.81",31.18 ± 1.3 J/K/mol
same,molar heat capacity at constant pressure,"720 K, Crystal of intercomponent compound 2, relaxation calorimetry + DSC, x2 = 0.804",31.84 ± 1.3 J/K/mol
same,molar heat capacity at constant pressure,"721.05 K, Crystal of intercomponent compound 2, Small sample (50 mg) DSC, x2 = 0.804",31.75 ± 0.78 J/K/mol and 32.03 ± 0.78 J/K/mol
same,molar heat capacity at constant pressure,"721.2 K, Crystal of intercomponent compound 1, Small sample (50 mg) DSC, x2 = 0.81",30.49 ± 0.75 J/K/mol
same,molar heat capacity at constant pressure,"721.22 K, Crystal of intercomponent compound 1, Small sample (50 mg) DSC, x2 = 0.81",31.15 ± 0.76 J/K/mol
same,molar heat capacity at constant pressure,"730.97 K, Crystal of intercomponent compound 2, Small sample (50 mg) DSC, x2 = 0.804",32.1 ± 0.79 J/K/mol and 32.36 ± 0.79 J/K/mol
same,molar heat capacity at constant pressure,"731.12 K, Crystal of intercomponent compound 1, Small sample (50 mg) DSC, x2 = 0.81",31.04 ± 0.76 J/K/mol
same,molar heat capacity at constant pressure,"731.13 K, Crystal of intercomponent compound 1, Small sample (50 mg) DSC, x2 = 0.81",31.37 ± 0.77 J/K/mol
same,molar heat capacity at constant pressure,"740 K, Crystal of intercomponent compound 1, relaxation calorimetry + DSC, x2 = 0.81",31.88 ± 1.3 J/K/mol
same,molar heat capacity at constant pressure,"740 K, Crystal of intercomponent compound 2, relaxation calorimetry + DSC, x2 = 0.804",32.3 ± 1.3 J/K/mol
same,molar heat capacity at constant pressure,"740.89 K, Crystal of intercomponent compound 2, Small sample (50 mg) DSC, x2 = 0.804",32.38 ± 0.79 J/K/mol and 32.64 ± 0.8 J/K/mol
same,molar heat capacity at constant pressure,"741.03 K, Crystal of intercomponent compound 1, Small sample (50 mg) DSC, x2 = 0.81",31.26 ± 0.77 J/K/mol
same,molar heat capacity at constant pressure,"741.04 K, Crystal of intercomponent compound 1, Small sample (50 mg) DSC, x2 = 0.81",31.7 ± 0.78 J/K/mol
same,molar heat capacity at constant pressure,"750.81 K, Crystal of intercomponent compound 2, Small sample (50 mg) DSC, x2 = 0.804",32.68 ± 0.8 J/K/mol and 32.92 ± 0.81 J/K/mol
same,molar heat capacity at constant pressure,"750.95 K, Crystal of intercomponent compound 1, Small sample (50 mg) DSC, x2 = 0.81",31.81 ± 0.78 J/K/mol
same,molar heat capacity at constant pressure,"750.96 K, Crystal of intercomponent compound 1, Small sample (50 mg) DSC, x2 = 0.81",32.14 ± 0.79 J/K/mol
same,molar heat capacity at constant pressure,"760 K, Crystal of intercomponent compound 1, relaxation calorimetry + DSC, x2 = 0.81",32.63 ± 1.3 J/K/mol
same,molar heat capacity at constant pressure,"760 K, Crystal of intercomponent compound 2, relaxation calorimetry + DSC, x2 = 0.804",32.82 ± 1.3 J/K/mol
same,molar heat capacity at constant pressure,"760.73 K, Crystal of intercomponent compound 2, Small sample (50 mg) DSC, x2 = 0.804",33.14 ± 0.81 J/K/mol and 33.47 ± 0.82 J/K/mol
same,molar heat capacity at constant pressure,"760.87 K, Crystal of intercomponent compound 1, Small sample (50 mg) DSC, x2 = 0.81",32.14 ± 0.79 J/K/mol and 32.58 ± 0.8 J/K/mol
same,molar heat capacity at constant pressure,"770.64 K, Crystal of intercomponent compound 2, Small sample (50 mg) DSC, x2 = 0.804",33.77 ± 0.83 J/K/mol and 34.02 ± 0.83 J/K/mol
same,molar heat capacity at constant pressure,"770.79 K, Crystal of intercomponent compound 1, Small sample (50 mg) DSC, x2 = 0.81",33.23 ± 0.82 J/K/mol and 33.34 ± 0.82 J/K/mol
same,molar heat capacity at constant pressure,"771.71 K, Crystal of intercomponent compound 1, Small sample (50 mg) DSC, x2 = 0.81",33.67 ± 0.83 J/K/mol
same,molar heat capacity at constant pressure,"773.69 K, Crystal of intercomponent compound 1, Small sample (50 mg) DSC, x2 = 0.81",33.78 ± 0.83 J/K/mol
same,molar heat capacity at constant pressure,"775.67 K, Crystal of intercomponent compound 1, Small sample (50 mg) DSC, x2 = 0.81",33.89 ± 0.83 J/K/mol
same,molar heat capacity at constant pressure,"777.66 K, Crystal of intercomponent compound 1, Small sample (50 mg) DSC, x2 = 0.81",34.22 ± 0.84 J/K/mol
same,molar heat capacity at constant pressure,"779.64 K, Crystal of intercomponent compound 1, Small sample (50 mg) DSC, x2 = 0.81",34.39 ± 0.84 J/K/mol
same,molar heat capacity at constant pressure,"780 K, Crystal of intercomponent compound 1, relaxation calorimetry + DSC, x2 = 0.81",33.45 ± 1.4 J/K/mol
same,molar heat capacity at constant pressure,"780 K, Crystal of intercomponent compound 2, relaxation calorimetry + DSC, x2 = 0.804",33.49 ± 1.4 J/K/mol
same,molar heat capacity at constant pressure,"780.56 K, Crystal of intercomponent compound 2, Small sample (50 mg) DSC, x2 = 0.804",34.41 ± 0.84 J/K/mol and 34.69 ± 0.85 J/K/mol
same,molar heat capacity at constant pressure,"780.7 K, Crystal of intercomponent compound 1, Small sample (50 mg) DSC, x2 = 0.81",34 ± 0.83 J/K/mol
same,molar heat capacity at constant pressure,"780.71 K, Crystal of intercomponent compound 1, Small sample (50 mg) DSC, x2 = 0.81",34.22 ± 0.84 J/K/mol
same,molar heat capacity at constant pressure,"781.63 K, Crystal of intercomponent compound 1, Small sample (50 mg) DSC, x2 = 0.81",34.88 ± 0.85 J/K/mol
same,molar heat capacity at constant pressure,"783.61 K, Crystal of intercomponent compound 1, Small sample (50 mg) DSC, x2 = 0.81",34.99 ± 0.86 J/K/mol
same,molar heat capacity at constant pressure,"785.59 K, Crystal of intercomponent compound 1, Small sample (50 mg) DSC, x2 = 0.81",35.21 ± 0.86 J/K/mol
same,molar heat capacity at constant pressure,"787.58 K, Crystal of intercomponent compound 1, Small sample (50 mg) DSC, x2 = 0.81",35.32 ± 0.87 J/K/mol
same,molar heat capacity at constant pressure,"789.57 K, Crystal of intercomponent compound 1, Small sample (50 mg) DSC, x2 = 0.81",35.32 ± 0.87 J/K/mol
same,molar heat capacity at constant pressure,"790.48 K, Crystal of intercomponent compound 2, Small sample (50 mg) DSC, x2 = 0.804",34.65 ± 0.85 J/K/mol and 35.21 ± 0.86 J/K/mol
same,molar heat capacity at constant pressure,"790.61 K, Crystal of intercomponent compound 1, Small sample (50 mg) DSC, x2 = 0.81",34.99 ± 0.86 J/K/mol
same,molar heat capacity at constant pressure,"790.63 K, Crystal of intercomponent compound 1, Small sample (50 mg) DSC, x2 = 0.81",34.55 ± 0.85 J/K/mol
same,molar heat capacity at constant pressure,"791.55 K, Crystal of intercomponent compound 1, Small sample (50 mg) DSC, x2 = 0.81",35.54 ± 0.87 J/K/mol
same,molar heat capacity at constant pressure,"793.53 K, Crystal of intercomponent compound 1, Small sample (50 mg) DSC, x2 = 0.81",35.76 ± 0.88 J/K/mol
same,molar heat capacity at constant pressure,"795.51 K, Crystal of intercomponent compound 1, Small sample (50 mg) DSC, x2 = 0.81",36.31 ± 0.89 J/K/mol
same,molar heat capacity at constant pressure,"797.49 K, Crystal of intercomponent compound 1, Small sample (50 mg) DSC, x2 = 0.81",36.96 ± 0.91 J/K/mol
same,molar heat capacity at constant pressure,"800 K, Crystal of intercomponent compound 1, relaxation calorimetry + DSC, x2 = 0.81",34.34 ± 1.4 J/K/mol
same,molar heat capacity at constant pressure,"800 K, Crystal of intercomponent compound 2, relaxation calorimetry + DSC, x2 = 0.804",34.61 ± 1.4 J/K/mol
same,molar heat capacity at constant pressure,"800.39 K, Crystal of intercomponent compound 2, Small sample (50 mg) DSC, x2 = 0.804",35.13 ± 0.86 J/K/mol and 35.58 ± 0.87 J/K/mol
same,molar heat capacity at constant pressure,"810.3 K, Crystal of intercomponent compound 2, Small sample (50 mg) DSC, x2 = 0.804",35.47 ± 0.87 J/K/mol and 36.02 ± 0.88 J/K/mol
same,molar heat capacity at constant pressure,"820 K, Crystal of intercomponent compound 2, relaxation calorimetry + DSC, x2 = 0.804",36.83 ± 1.5 J/K/mol
same,molar heat capacity at constant pressure,"820.22 K, Crystal of intercomponent compound 2, Small sample (50 mg) DSC, x2 = 0.804",36.24 ± 0.89 J/K/mol and 36.35 ± 0.89 J/K/mol
same,molar heat capacity at constant pressure,"830.13 K, Crystal of intercomponent compound 2, Small sample (50 mg) DSC, x2 = 0.804",38.35 ± 0.94 J/K/mol and 38.57 ± 0.95 J/K/mol
same,molar heat capacity at constant pressure,"840 K, Crystal of intercomponent compound 2, relaxation calorimetry + DSC, x2 = 0.804",41.72 ± 1.7 J/K/mol
same,molar heat capacity at constant pressure,"840.04 K, Crystal of intercomponent compound 2, Small sample (50 mg) DSC, x2 = 0.804",41.23 ± 1 J/K/mol and 41.78 ± 1 J/K/mol
same,molar heat capacity at constant pressure,"849.95 K, Crystal of intercomponent compound 2, Small sample (50 mg) DSC, x2 = 0.804",45.22 ± 1.1 J/K/mol and 47.32 ± 1.2 J/K/mol
same,molar heat capacity at constant pressure,"859.87 K, Crystal of intercomponent compound 2, Small sample (50 mg) DSC, x2 = 0.804",51.54 ± 1.3 J/K/mol and 53.53 ± 1.3 J/K/mol
same,molar heat capacity at constant pressure,"860 K, Crystal of intercomponent compound 2, relaxation calorimetry + DSC, x2 = 0.804",52.81 ± 2.1 J/K/mol
same,molar heat capacity at constant pressure,"869.79 K, Crystal of intercomponent compound 2, Small sample (50 mg) DSC, x2 = 0.804",60.18 ± 1.5 J/K/mol and 65.17 ± 1.6 J/K/mol
